Measured values as given in patent US11672792B2, “Topical formulations comprising montelukast and combinations with mussel adhesive proteins” (ENLITISA (SHANGHAI) PHARMACEUTICAL CO., LTD, priority 2017, dated 2023).

Assays:
[1] = test system: carrageenan-induced acute inflammation in subcutaneous air pouch; assay: Air Pouch Model: Topical Administration Versus Oral Administration (Example 4); details: 200 μg/mouse, Mon-O intragastric; for Exudate volume / Pouch Wall Weight: others injected into pouch; for Activity score / Edema Score / IFN-γ in exudate (ELISA) / IL-6 in exudate (ELISA) / Inflammation score / Leukocyte count in exudate / Sum (of histology scores) / TNF-α in exudate (ELISA): others into pouch
[2] = test system: carrageenan-induced acute inflammation in subcutaneous air pouch; assay: Air Pouch Model I (Example 1); type: in vivo, C57BL/6 mice; set-up: Activity score / Edema Score / Sum (of histology scores) / Fibroplastic proliferation score / Inflammation score: scale not given here; details: MAP 1.5 mg, Mon 200 μg; for IFN-γ in exudate (ELISA) / IL-6 in exudate (ELISA) / IL-10 in exudate (ELISA) / TNF-α in exudate (ELISA) / Activity score / Edema Score / Fibroplastic proliferation score / Inflammation score / Sum (of histology scores): dexamethasone 200 μg; for Leukocyte count in exudate / Lymphocyte count in exudate / Monocyte count in exudate / Neutrophil count in exudate / Exudate volume / Pouch Wall Weight: doses/mouse: dexamethasone 200 μg; for Exudate volume / Pouch Wall Weight: 24 h after carrageenan; for Activity score / Edema Score / Fibroplastic proliferation score / Inflammation score / Sum (of histology scores): pouch wall histology
Method: Healthy adult male C57BL/6 mice weighing between 20 and 30 g were supplied by Changzhou Cvens Experimental Animal Co. Ltd (Changzhou, Jiangsu Province, China). Prior to any experiments being conducted, mice were housed under standardized conditions (at a constant temperature or 22 t 2° C., with alternating 12 hour periods of light and darkness), and were fed on a standard mouse diet with water, for about a week.
General anesthesia was induced using intraperitoneal 3% chloral hydrate (Sinopharm Chemical Reagent Co., Ltd., Shanghai, China); 1 mL/10 g of body weight). The hair of the entire dorsum was shaved and depilated 1 day before sterile air injection.
Air pouches were produced by subcutaneous injection of sterile air (5 mL) into the intrascapular area of the mice. After three days, another injection of air (3 mL) was performed to maintain the pouches. In order to induce acute inflammation, three days after this final injection, animals received an injection of sterile carrageenan solution (CP Kelco, Taixing, Jiangsu Province, China; 1%, 0.5 mL; produced by adding 0.1 g of carrageenan powder into a beaker containing 10 mL of 0.9% saline solution and stirring). Mice were pre-treated with test samples or vehicle 1 hour before and 23 hours after the carrageenan injection into the subcutaneous air pouch. Animals were sacrificed 24 hours after the carrageenan injection.
Skin biopsies were taken from the air pouches. A part of the biopsy was fixed in formalin (produced by adding ultra pure water to 50 mL of a 40% formaldehyde solution (Nanchang Rain Dew Experimental Equipment Co., Ltd., Nanchang, […] Provence, China) up to a total volume of 500 mL) and analyzed by histological embedding in paraffin wax, sectioning and staining.
The cavity was washed with 4 mL of sterile phosphate buffer solution (pH 7.4; prepared by dissolving 4 g of NaCl, 0.1 g of KCl, 1.749 g of Na2HPO4.12H2O and 0.1 g of KH2PO4 in ultrapure water, adjusting the pH to 7.4 with HCl and diluting with water to a total volume of 500 mL).
Exudates were collected and volumes were quantified. The total number of cells was determined with a haematocytometer (ADVIA 2120 Hematology System, Siemens Healthineers).
In Table 1, MAP is a Mefp-1 solution, which is was prepared as follows. Blue mussels were harvested in the coastal area of Shandong Province, China. Mussel feet were collected, cut into small pieces and homogenized in an extraction buffer comprising 5% acetic acid in 4 mol/L of aqueous urea. The crude extracts were collected after centrifuging and then purified by liquid chromatography. […] The solutions that were employed below were prepared by adding saline solution to this semi-finished product to obtain a concentration as described in Table 1.

[3] = test system: carrageenan-induced acute inflammation in subcutaneous air pouch; assay: Air Pouch Model II (Example 2); type: in vivo, mice; set-up: Fibroplastic proliferation score / Inflammation score / Activity score / Edema Score / Sum (of histology scores): scale not given here; details: Dopamine 2 mg, MAP 250 μg, Mon 100 μg
Method: In Table 6, “Dex” is an abbreviation for dexamethasone and “Dopamine” is a 4 mg/mL aqueous solution of dopamine hydrochloride (Shanghai Aladdin Bio-Chem Technology Co., Ltd., Shanghai, China).
The histological specimens were analysed and an inflammation score, an activity score and a fibroplastic proliferation score were estimated as in Example 1 above and are tabulated in Table 9 below.

C[C@@H]1C[C@H]2[C@@H]3CCC4=CC(=O)C=C[C@]4(C)[C@@]3(F)[C@@H](O)C[C@]2(C)[C@@]1(O)C(=O)CO [Dexamethasone, dexamethasone]
Exudate volume [1]: 3.3 ± 0.15 mL | Pouch Wall Weight [1]: 0.63 ± 0.09 g | Activity score [1]: 0.67 | Edema Score [1]: 1.67 | IFN-γ in exudate (ELISA) [1]: 388.83 ± 130.02 | IL-6 in exudate (ELISA) [1]: 428.05 ± 267.27 | Inflammation score [1]: 1.83 | Leukocyte count in exudate [1]: 3.49e+06 mL⁻¹ | Sum (of histology scores) [1]: 4.17 | TNF-α in exudate (ELISA) [1]: 65.08 ± 7.70 | IFN-γ in exudate (ELISA) [2]: 2879 ± 1267 | IL-6 in exudate (ELISA) [2]: 3649 ± 1764 | IL-10 in exudate (ELISA) [2]: 52.33 ± 11.60 | TNF-α in exudate (ELISA) [2]: 71.31 ± 111.19 | Leukocyte count in exudate [2]: 2.48e+08 mL⁻¹ | Lymphocyte count in exudate [2]: 2.08e+08 mL⁻¹ | Monocyte count in exudate [2]: 5e+06 mL⁻¹ | Neutrophil count in exudate [2]: 2.2e+07 mL⁻¹ | Exudate volume [2]: 3.60 ± 0.14 mL | Pouch Wall Weight [2]: 0.72 ± 0.09 g | Activity score [2]: 0.83 | Edema Score [2]: 1.67 | Fibroplastic proliferation score [2]: 0.00 | Inflammation score [2]: 1.50 | Sum (of histology scores) [2]: 4.00 | Activity score ([3]; Dex 400 μg): 0.33 | Edema Score ([3]; Dex 400 μg): 0.83 | Fibroplastic proliferation score ([3]; Dex 400 μg): 0.00 | IFN-γ in exudate (ELISA) ([3]; Dex 400 μg): 238.91 ± 272.27 | IL-6 in exudate (ELISA) ([3]; Dex 400 μg): 3697.30 ± 5112.52 | Inflammation score ([3]; Dex 400 μg): 0.83 | Leukocyte count in exudate ([3]; Dex 400 μg): 880000 mL⁻¹ | Lymphocyte count in exudate ([3]; Dex 400 μg): 30000 mL⁻¹ | Monocyte count in exudate ([3]; Dex 400 μg): 670000 mL⁻¹ | Neutrophil count in exudate ([3]; Dex 400 μg): 130000 mL⁻¹ | Sum (of histology scores) ([3]; Dex 400 μg): 2.00 | Exudate volume ([3]; doses/mouse: Dex 400 μg): 2.87 ± 0.06 mL | Pouch Wall Weight ([3]; doses/mouse: Dex 400 μg): 0.45 ± 0.01 g

CC(C)(O)c1ccccc1CC[C@@H](SCC1(CC(=O)O)CC1)c1cccc(/C=C/c2ccc3ccc(Cl)cc3n2)c1 [Mon, Montelukast sodium]
Exudate volume ([1]; listed as Mon-O): 3.69 ± 0.14 mL | Pouch Wall Weight ([1]; listed as Mon-O): 0.68 ± 0.08 g | Exudate volume ([1]; listed as Mon-T): 3.54 ± 0.09 mL | Pouch Wall Weight ([1]; listed as Mon-T): 0.65 ± 0.06 g | Activity score ([1]; listed as Mon-O): 1.67 | Edema Score ([1]; listed as Mon-O): 2.17 | IFN-γ in exudate (ELISA) ([1]; listed as Mon-O): 557.95 ± 231.86 | IL-6 in exudate (ELISA) ([1]; listed as Mon-O): 500.25 ± 292.84 | Inflammation score ([1]; listed as Mon-O): 2.33 | Leukocyte count in exudate ([1]; listed as Mon-O): 2.66e+06 mL⁻¹ | Sum (of histology scores) ([1]; listed as Mon-O): 6.17 | TNF-α in exudate (ELISA) ([1]; listed as Mon-O): 146.3 ± 70.74 | Activity score ([1]; listed as Mon-T): 1.00 | IFN-γ in exudate (ELISA) ([1]; listed as Mon-T): 568.19 ± 316.70 | IL-6 in exudate (ELISA) ([1]; listed as Mon-T): 312.05 ± 189.23 | Inflammation score ([1]; listed as Mon-T): 2.00 | Leukocyte count in exudate ([1]; listed as Mon-T): 2.19e+06 mL⁻¹ | TNF-α in exudate (ELISA) ([1]; listed as Mon-T): 80.37 ± 61.72 | IFN-γ in exudate (ELISA) ([2]; listed as Mon (oral)): 2495 ± 711 | IL-6 in exudate (ELISA) ([2]; listed as Mon (oral)): 8453 ± 9758 | IL-10 in exudate (ELISA) ([2]; listed as Mon (oral)): 52.59 ± 7.22 | TNF-α in exudate (ELISA) ([2]; listed as Mon (oral)): 39.41 ± 17.62 | IFN-γ in exudate (ELISA) ([2]; listed as Mon (topical)): 1690 ± 725 | IL-6 in exudate (ELISA) ([2]; listed as Mon (topical)): 2528 ± 1538 | IL-10 in exudate (ELISA) ([2]; listed as Mon (topical)): 68.18 ± 15.81 | TNF-α in exudate (ELISA) ([2]; listed as Mon (topical)): 90.73 ± 109.02 | Exudate volume ([2]; listed as Mon (oral)): 3.58 ± 0.15 mL | Pouch Wall Weight ([2]; listed as Mon (oral)): 0.67 ± 0.10 g | Exudate volume ([2]; listed as Mon (topical)): 3.68 ± 0.15 mL | Pouch Wall Weight ([2]; listed as Mon (topical)): 0.66 ± 0.13 g | Leukocyte count in exudate ([2]; listed as Mon (oral)): 2.38e+08 mL⁻¹ | Lymphocyte count in exudate ([2]; listed as Mon (oral)): 1.98e+08 mL⁻¹ | Monocyte count in exudate ([2]; listed as Mon (oral)): 7e+06 mL⁻¹ | Neutrophil count in exudate ([2]; listed as Mon (oral)): 2.1e+07 mL⁻¹ | Leukocyte count in exudate ([2]; listed as Mon (topical)): 3.82e+08 mL⁻¹ | Lymphocyte count in exudate ([2]; listed as Mon (topical)): 3.22e+08 mL⁻¹ | Monocyte count in exudate ([2]; listed as Mon (topical)): 1.7e+07 mL⁻¹ | Neutrophil count in exudate ([2]; listed as Mon (topical)): 2.9e+07 mL⁻¹ | Activity score [2]: 1.00 | Edema Score ([2]; listed as Mon (oral)): 1.00 | Fibroplastic proliferation score ([2]; listed as Mon (oral)): 0.33 | Sum (of histology scores) ([2]; listed as Mon (oral)): 4.17 | Fibroplastic proliferation score ([2]; listed as Mon (topical)): 0.83 | Inflammation score ([2]; listed as Mon (topical)): 2.17 | Sum (of histology scores) ([2]; listed as Mon (topical)): 5.50 | Fibroplastic proliferation score ([3]; Dex 400 μg): 0.00
